This experiment concerns soft tissue sarcomas. Briefly: Phase I clinical trial in soft tissue sarcoma patients: MRI (DCE-MRI, DWI, RECIST) after two weeks of Sorafenib only treatment (TP1) versus before therapy (TP0). The class given is in vivo, human. The procedure:
Patients with biopsy-proven, grade 2-3, deep, and >5 cm soft tissue sarcomas participated in a phase I clinical trial in which the vascular endothelial growth factor receptor (VEGFR) inhibitor, Sorafenib, was added to a preoperative chemoradiotherapy regimen. Research MRI studies were performed at time-point zero (TP0)—before therapy, TP1, after two weeks of Sorafenib only treatment, and TP2, after eight more weeks of treatment with Sorafenib plus chemoradiation therapy, followed by surgery and pathology review including estimation of tumor histologic necrosis. A total of eleven patients consented to the research MRI scans, with 9 of them having at least two DCE-MRI studies (at TP0 and TP1). In these 9 patients, five masses were located in the thigh, two in the calf, one in the knee, and one in the shoulder.
The MRI studies were performed using a 3T Siemens instrument with the body transmit and phased-array body matrix (combined with a spine matrix) receive RF coils. Following scout and axial T2-weighted MRI, sagittal diffusion-weighted imaging (DWI) was performed (in seven of the 9 patients) using a spin-echo single-shot EPI sequence with TE/TR=104/8000 ms, 24-36 cm FOV, 5 mm slice thickness with zero gap, 192×192 matrix size, and b values of 0, 500, and 1000 s/mm^2 applied in three orthogonal directions.
Subsequently, a 3D RF-spoiled gradient-echo sequence was used to acquire sagittal DCE-MRI data with 10 degree flip angle, TE/TR=[…], and 320×160 matrix size. […]
ADC trace maps were generated with manufacturer's DWI data processing software. […] The arterial input functions (AIFs) used for the quantitative analyses were directly measured from ROIs placed in a femoral artery (for thigh, knee, and calf tumors) and an axillary artery (for the shoulder mass). The whole tumor ROI DWI/DCE-MRI parameter values were calculated by averaging the ROI values from each of the image slices covering the entire tumor, weighted by the pixel numbers within the image slice ROIs. Pixel parameter values were analyzed with histograms and the amplitude and median values were obtained. […]

Results on one compound are retold here after patent US20150087967A1, “METHOD AND APPARATUS USING MAGNETIC RESONANCE IMAGING FOR TISSUE PHENOTYPING AND MONITORING” (Oregon Health & Science University, priority 2012, published 2015).

For `CNC(=O)c1cc(Oc2ccc(NC(=O)Nc3ccc(Cl)c(C(F)(F)F)c3)cc2)ccn1` [Sorafenib], where the note is “% change at TP1 (two weeks of Sorafenib only) relative to TP0”, the “change in ADC (apparent diffusion coefficient)” value was “small”. Besides, where the note is “% change at TP1 (two weeks of Sorafenib only) relative to TP0, 9 patients”, the “change in tumor size (RECIST)” value is given as “small”. Moreover, the “tumor vascular effect detected by DCE-MRI biomarkers” value (patients with grade 2-3 soft tissue sarcomas, after two weeks of Sorafenib only treatment (TP1)) is “Tumor vascular shut-down induced by Sorafenib preceded cell death”.
